Laboratory results from the supplement of paper PMC10307832.

Tests used:
Assay in all cases: relative viability (nuclei count vs DMSO), 5 days (fraction); higher = more cells survive
Sorafenib = compound: CNC(=O)c1cc(Oc2ccc(NC(=O)Nc3ccc(Cl)c(C(F)(F)F)c3)cc2)ccn1 [Sorafenib]
Procedure, shortened: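 Lung cancer cell lines received five library-drug doses (not always all listed) spaced by √10, pinned on vehicle-anchored 1536-well plates after an overnight stay at 37 °C. Five days later, with no medium change, nuclei were Hoechst-stained, imaged at 4× and counted with MetaXpress. Viability is treated-well nuclei relative to vehicle-well nuclei, as a median across plates. Passing plates had control CV below 25% and at least one doubling.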

Sorafenib + Decitabine = compound: CNC(=O)c1cc(Oc2ccc(NC(=O)Nc3ccc(Cl)c(C(F)(F)F)c3)cc2)ccn1 [Sorafenib] + Nc1ncn([C@H]2C[C@H](O)[C@@H](CO)O2)c(=O)n1 [Decitabine] (partner 2 µM)
Procedure, shortened: (§1)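 After 5 days of treatment, lung cancer cells in 1536-well plates were fixed and stained in a single step (final 0.05% Triton X-100, 1% formaldehyde, 1 ug/ml Hoechst) and their nuclei counted on 4× images. Treatment had been applied by pin tool the day after seeding as one drug alone or as a fixed anchor-drug dose with five library-drug doses (not always all listed) in √10 steps. Relative viability is the nuclei count of treated wells divided by that of vehicle wells, and values are medians of duplicate plates.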

Sorafenib + Olaparib = compound: CNC(=O)c1cc(Oc2ccc(NC(=O)Nc3ccc(Cl)c(C(F)(F)F)c3)cc2)ccn1 [Sorafenib] + O=C(c1cc(Cc2n[nH]c(=O)c3ccccc23)ccc1F)N1CCN(C(=O)C2CC2)CC1 [Olaparib] (partner 8 µM)
Procedure, shortened: as §1

Sorafenib + Tozasertib = compound: CNC(=O)c1cc(Oc2ccc(NC(=O)Nc3ccc(Cl)c(C(F)(F)F)c3)cc2)ccn1 [Sorafenib] + Cc1cc(Nc2cc(N3CCN(C)CC3)nc(Sc3ccc(NC(=O)C4CC4)cc3)n2)n[nH]1 [Tozasertib] (partner 0.1 µM)
Procedure, shortened: as §1

Sorafenib + Palbociclib = compound: CNC(=O)c1cc(Oc2ccc(NC(=O)Nc3ccc(Cl)c(C(F)(F)F)c3)cc2)ccn1 [Sorafenib] + CC(=O)c1c(C)c2cnc(Nc3ccc(N4CCNCC4)cn3)nc2n(C2CCCC2)c1=O [Palbociclib] (partner 0.5 µM)
Procedure, shortened: as §1

Sorafenib + Pemetrexed = compound: CNC(=O)c1cc(Oc2ccc(NC(=O)Nc3ccc(Cl)c(C(F)(F)F)c3)cc2)ccn1 [Sorafenib] + Nc1nc2[nH]cc(CCc3ccc(C(=O)N[C@@H](CCC(=O)O)C(=O)O)cc3)c2c(=O)[nH]1 [Pemetrexed] (partner 0.2 µM)
Procedure, shortened: as §1

Sorafenib + Trametinib = compound: CNC(=O)c1cc(Oc2ccc(NC(=O)Nc3ccc(Cl)c(C(F)(F)F)c3)cc2)ccn1 [Sorafenib] + CC(=O)Nc1cccc(-n2c(=O)n(C3CC3)c(=O)c3c(Nc4ccc(I)cc4F)n(C)c(=O)c(C)c32)c1 [Trametinib] (partner 0.02 µM)
Procedure, shortened: as §1

Sorafenib + AZD7762 = compound: CNC(=O)c1cc(Oc2ccc(NC(=O)Nc3ccc(Cl)c(C(F)(F)F)c3)cc2)ccn1 [Sorafenib] + NC(=O)Nc1cc(-c2cccc(F)c2)sc1C(=O)N[C@H]1CCCNC1 [AZD7762] (partner 0.2 µM)
Procedure, shortened: as §1

Sorafenib + Vorinostat = compound: CNC(=O)c1cc(Oc2ccc(NC(=O)Nc3ccc(Cl)c(C(F)(F)F)c3)cc2)ccn1 [Sorafenib] + O=C(CCCCCCC(=O)Nc1ccccc1)NO [Vorinostat] (partner 1 µM)
Procedure, shortened: as §1

Sorafenib + OSI-027 = compound: CNC(=O)c1cc(Oc2ccc(NC(=O)Nc3ccc(Cl)c(C(F)(F)F)c3)cc2)ccn1 [Sorafenib] + COc1cccc2cc(-c3nc([C@H]4CC[C@H](C(=O)O)CC4)n4ncnc(N)c34)[nH]c12 [OSI-027] (partner 0.5 µM)
Procedure, shortened: as §1

Sorafenib + Luminespib = compound: CNC(=O)c1cc(Oc2ccc(NC(=O)Nc3ccc(Cl)c(C(F)(F)F)c3)cc2)ccn1 [Sorafenib] + CCNC(=O)c1noc(-c2cc(C(C)C)c(O)cc2O)c1-c1ccc(CN2CCOCC2)cc1 [Luminespib] (partner 0.01 µM)
Procedure, shortened: as §1

Sorafenib + Phenformin = compound: CNC(=O)c1cc(Oc2ccc(NC(=O)Nc3ccc(Cl)c(C(F)(F)F)c3)cc2)ccn1 [Sorafenib] + N=C(N)NC(=N)NCCc1ccccc1 [Phenformin] (partner 250 µM)
Procedure, shortened: as §1

Sorafenib + Foretinib = compound: CNC(=O)c1cc(Oc2ccc(NC(=O)Nc3ccc(Cl)c(C(F)(F)F)c3)cc2)ccn1 [Sorafenib] + COc1cc2c(Oc3ccc(NC(=O)C4(C(=O)Nc5ccc(F)cc5)CC4)cc3F)ccnc2cc1OCCCN1CCOCC1 [Foretinib] (partner 0.25 µM)
Procedure, shortened: as §1

Sorafenib + Dasatinib = compound: CNC(=O)c1cc(Oc2ccc(NC(=O)Nc3ccc(Cl)c(C(F)(F)F)c3)cc2)ccn1 [Sorafenib] + Cc1nc(Nc2ncc(C(=O)Nc3c(C)cccc3Cl)s2)cc(N2CCN(CCO)CC2)n1 [Dasatinib] (partner 0.075 µM)
Procedure, shortened: as §1

Work on NCI-H1648 yielded a relative viability (Sorafenib; 0.08 µM) of 0.921, a relative viability (Sorafenib; 0.253 µM) of 0.53 and a relative viability (Sorafenib; 2.53 µM) of 0.925. It also gave a relative viability (Sorafenib; 8 µM) of 0.726, a relative viability (Sorafenib + Decitabine; first compound 0.08 µM) of 0.521 and a relative viability (Sorafenib + Decitabine; first compound 2.53 µM) of 0.682. It also gave a relative viability (Sorafenib + Decitabine; first compound 8 µM) of 0.409, a relative viability (Sorafenib + Olaparib; first compound 0.08 µM) of 0.787 and a relative viability (Sorafenib + Olaparib; first compound 2.53 µM) of 0.76. It also gave a relative viability (Sorafenib + Olaparib; first compound 8 µM) of 0.721, a relative viability (Sorafenib + Tozasertib; first compound 0.08 µM) of 0.566 and a relative viability (Sorafenib + Tozasertib; first compound 0.253 µM) of 0.4. For the same cell line, the relative viability (Sorafenib + Tozasertib; first compound 2.53 µM) was 0.282, the relative viability (Sorafenib + Tozasertib; first compound 8 µM) was 0.405 and the relative viability (Sorafenib + Palbociclib; first compound 0.08 µM) was 0.307. For the same cell line, the relative viability (Sorafenib + Palbociclib; first compound 2.53 µM) was 0.249, the relative viability (Sorafenib + Palbociclib; first compound 8 µM) was 0.231 and the relative viability (Sorafenib + Pemetrexed; first compound 0.08 µM) was 0.771. It also gave a relative viability (Sorafenib + Pemetrexed; first compound 2.53 µM) of 0.708, a relative viability (Sorafenib + Pemetrexed; first compound 8 µM) of 0.731 and a relative viability (Sorafenib + Trametinib; first compound 0.08 µM) of 0.468. The relative viability (Sorafenib + Trametinib; first compound 2.53 µM) was 0.454, the relative viability (Sorafenib + Trametinib; first compound 8 µM) was 0.258 and the relative viability (Sorafenib + AZD7762; first compound 0.08 µM) was 0.704. The relative viability (Sorafenib + AZD7762; first compound 2.53 µM) was 0.74, the relative viability (Sorafenib + AZD7762; first compound 8 µM) was 0.498 and the relative viability (Sorafenib + Vorinostat; first compound 0.08 µM) was 0.404. The relative viability (Sorafenib + Vorinostat; first compound 2.53 µM) was 0.482, the relative viability (Sorafenib + Vorinostat; first compound 8 µM) was 0.321 and the relative viability (Sorafenib + OSI-027; first compound 0.08 µM) was 0.235. The relative viability (Sorafenib + OSI-027; first compound 0.253 µM) was 0.264, the relative viability (Sorafenib + OSI-027; first compound 2.53 µM) was 0.247 and the relative viability (Sorafenib + OSI-027; first compound 8 µM) was 0.247.
NCI-H2342 showed a relative viability (Sorafenib; 0.253 µM) of 0.728, a relative viability (Sorafenib; 8 µM) of 0.656 and a relative viability (Sorafenib + Decitabine; first compound 0.08 µM) of 0.778. For the same cell line, the relative viability (Sorafenib + Decitabine; first compound 0.253 µM) was 0.676, the relative viability (Sorafenib + Decitabine; first compound 2.53 µM) was 0.716 and the relative viability (Sorafenib + Decitabine; first compound 8 µM) was 0.712. It also gave a relative viability (Sorafenib + Luminespib; first compound 0.08 µM) of 0.662, a relative viability (Sorafenib + Luminespib; first compound 0.253 µM) of 0.637 and a relative viability (Sorafenib + Luminespib; first compound 2.53 µM) of 0.597. For the same cell line, the relative viability (Sorafenib + Luminespib; first compound 8 µM) was 0.582, the relative viability (Sorafenib + Olaparib; first compound 0.08 µM) was 0.433 and the relative viability (Sorafenib + Olaparib; first compound 0.253 µM) was 0.487. It also gave a relative viability (Sorafenib + Olaparib; first compound 2.53 µM) of 0.351, a relative viability (Sorafenib + Olaparib; first compound 8 µM) of 0.388 and a relative viability (Sorafenib + Tozasertib; first compound 0.08 µM) of 0.568. The relative viability (Sorafenib + Tozasertib; first compound 0.253 µM) was 0.488, the relative viability (Sorafenib + Tozasertib; first compound 2.53 µM) was 0.377 and the relative viability (Sorafenib + Tozasertib; first compound 8 µM) was 0.366. It also gave a relative viability (Sorafenib + Palbociclib; first compound 0.08 µM) of 0.53, a relative viability (Sorafenib + Palbociclib; first compound 0.253 µM) of 0.523 and a relative viability (Sorafenib + Palbociclib; first compound 2.53 µM) of 0.556. It also gave a relative viability (Sorafenib + Palbociclib; first compound 8 µM) of 0.533, a relative viability (Sorafenib + Pemetrexed; first compound 0.253 µM) of 0.729 and a relative viability (Sorafenib + Pemetrexed; first compound 2.53 µM) of 0.78. For the same cell line, the relative viability (Sorafenib + Pemetrexed; first compound 8 µM) was 0.532, the relative viability (Sorafenib + Trametinib; first compound 0.08 µM) was 0.887 and the relative viability (Sorafenib + Trametinib; first compound 0.253 µM) was 0.749. The relative viability (Sorafenib + Trametinib; first compound 2.53 µM) was 0.71, the relative viability (Sorafenib + Trametinib; first compound 8 µM) was 0.682 and the relative viability (Sorafenib + AZD7762; first compound 0.08 µM) was 0.589. For the same cell line, the relative viability (Sorafenib + AZD7762; first compound 0.253 µM) was 0.409, the relative viability (Sorafenib + AZD7762; first compound 2.53 µM) was 0.554 and the relative viability (Sorafenib + AZD7762; first compound 8 µM) was 0.353. The relative viability (Sorafenib + Phenformin; first compound 0.08 µM) was 0.67, the relative viability (Sorafenib + Phenformin; first compound 0.253 µM) was 0.487 and the relative viability (Sorafenib + Phenformin; first compound 2.53 µM) was 0.528. It also gave a relative viability (Sorafenib + Phenformin; first compound 8 µM) of 0.381, a relative viability (Sorafenib + Foretinib; first compound 0.08 µM) of 1 and a relative viability (Sorafenib + Foretinib; first compound 0.253 µM) of 1. It also gave a relative viability (Sorafenib + Foretinib; first compound 2.53 µM) of 0.914, a relative viability (Sorafenib + Foretinib; first compound 8 µM) of 0.568 and a relative viability (Sorafenib + Vorinostat; first compound 0.08 µM) of 0.806. It also gave a relative viability (Sorafenib + Vorinostat; first compound 0.253 µM) of 0.628, a relative viability (Sorafenib + Vorinostat; first compound 2.53 µM) of 0.689 and a relative viability (Sorafenib + Vorinostat; first compound 8 µM) of 0.645. The relative viability (Sorafenib + Dasatinib; first compound 0.08 µM) was 0.32, the relative viability (Sorafenib + Dasatinib; first compound 0.253 µM) was 0.27 and the relative viability (Sorafenib + Dasatinib; first compound 2.53 µM) was 0.29. For the same cell line, the relative viability (Sorafenib + Dasatinib; first compound 8 µM) was 0.28, the relative viability (Sorafenib + OSI-027; first compound 0.08 µM) was 0.676 and the relative viability (Sorafenib + OSI-027; first compound 0.253 µM) was 0.522. For the same cell line, the relative viability (Sorafenib + OSI-027; first compound 2.53 µM) was 0.542 and the relative viability (Sorafenib + OSI-027; first compound 8 µM) was 0.482.
